In paper PMC8963254, “Effects of Lysine N-ζ-Methylation in Ultrashort Tetrabasic Lipopeptides (UTBLPs) on the Potentiation of Rifampicin, Novobiocin, and Niclosamide in Gram-Negative Bacteria” (Antibiotics, 2022):
Values after ≈ are worked out from the molar mass of the structure shown. Read-outs that look alike come from different tables or passages of the source. Residues, ends and D or L forms follow the SMILES beside them. *: point of attachment. Octanoyl = CCCCCCCC(=O)*

Experiments:
[1] = tested on: A. baumannii AB92247; test: microbe, parasite or virus in culture; assay type: cell-based, Acinetobacter baumannii; settings: AB92247, 18 h
Procedure, shortened: (§1)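 Minimum inhibitory concentration came from a CLSI broth dilution assay: 18 h at 37 °C, inoculum 5 × 10^5 CFU/mL final.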

[2] = tested on: A. baumannii AB027; test: microbe, parasite or virus in culture; assay type: cell-based, Acinetobacter baumannii; settings: AB027, 18 h
Procedure, shortened: as §1

[3] = tested on: E. coli 94474; test: microbe, parasite or virus in culture; assay type: cell-based, Escherichia coli; settings: 94474, 18 h
Procedure, shortened: as §1

[4] = tested on: E. coli 94393; test: microbe, parasite or virus in culture; assay type: cell-based, Escherichia coli; settings: 94393, 18 h
Procedure, shortened: as §1

[5] = tested on: MRSA ATCC 33592; assay type: cell-based, Staphylococcus aureus; settings: ATCC 33592, 18 h
Protocol: (§2) The in vitro antibacterial activity of the UTBLPs was assessed against wild-type and clinically isolated bacterial strains. To obtain the MIC of the compounds, the microbroth dilution susceptibility assay was performed according to the Clinical and Laboratory Standards Institute (CLSI, Wayne, PA, USA) guidelines and as previously described. Briefly, the compounds at varying concentrations were incubated with bacterial inoculum (5 × 10^5 CFU/mL final concentration) at 37 °C for 18 h. Growth in the form of turbidity was confirmed using an EMax Plus microplate reader (Molecular Devices, San Jose, CA, USA) at 590 nm.

[6] = tested on: S. aureus ATCC 29213; assay type: cell-based, Staphylococcus aureus; settings: ATCC 29213, 18 h
Protocol: as §2

[7] = tested on: P. aeruginosa PAO1; assay type: cell-based, Pseudomonas aeruginosa; settings: PAO1, 18 h
Protocol: as §2

[8] = tested on: E. cloacae 118564; assay type: cell-based, Enterobacter cloacae; settings: for MICUTBLP: UTBLP alone
Procedure, shortened: (§3)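 Checkerboard synergy assay: antibiotic and OMP combined at varying concentrations with 5 × 10^5 CFU/mL inoculum (final), 37 °C, 18 h; growth read as turbidity at 590 nm. FICI = sum of FICs (MIC in combination / MIC alone); ≤0.5 synergistic, 0.5–4 additive, >4 antagonistic.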

[9] = tested on: K. pneumoniae 113250; test: microbe, parasite or virus in culture; assay type: cell-based, Klebsiella pneumoniae; settings: 113250, 18 h
Procedure, shortened: as §1

[10] = tested on: E. faecium ATCC 27270; assay type: cell-based, Enterococcus faecium
Procedure, shortened: as §3

[11] = tested on: P. aeruginosa PA259-96196; assay type: cell-based, Pseudomonas aeruginosa; settings: for MICUTBLP: UTBLP alone
Procedure, shortened: as §3

[12] = tested on: P. aeruginosa PA262-101856; assay type: cell-based, Pseudomonas aeruginosa; settings: for MICUTBLP: UTBLP alone
Procedure, shortened: as §3

[13] = tested on: P. aeruginosa PAO1; assay type: cell-based, Pseudomonas aeruginosa; settings: for MICUTBLP: UTBLP alone
Procedure, shortened: as §3

[14] = tested on: E. faecalis ATCC 29212; assay type: cell-based, Enterococcus faecalis
Procedure, shortened: as §3

[15] = tested on: MRSA ATCC 33592; assay type: cell-based, Staphylococcus aureus
Procedure, shortened: as §3

[16] = tested on: S. aureus ATCC 29213; assay type: cell-based, Staphylococcus aureus
Procedure, shortened: as §3

[17] = tested on: E. cloacae 118564; test: microbe, parasite or virus in culture; assay type: cell-based, Enterobacter cloacae; settings: 118564, 18 h
Procedure, shortened: as §1

[18] = UTBLP in combination with novobiocin
[19] = UTBLP in combination with rifampicin
[20] = novobiocin in combination with the UTBLP
[21] = rifampicin in combination with the UTBLP
[22] = UTBLP alone, plate with chloramphenicol
[23] = UTBLP in combination with chloramphenicol
[24] = chloramphenicol in combination with the UTBLP

CCCCCCCC(=O)NCCCC[C@H](NC(=O)CCCCCCC)C(=O)N[C@@H](CCCCN)C(=O)N[C@@H](CCCCN)C(=O)N[C@@H](CCCCN)C(=O)N[C@@H](CCCCN)C(N)=O [UTBLP 5] (Octanoyl-K(Octanoyl)KKKK-NH2)
MIC [1]: 32 µg/mL (≈ 35.2 µM)
MIC [2]: 128 µg/mL (≈ 141 µM)
MIC [3]: 128 µg/mL (≈ 141 µM)
MIC [4]: 32 µg/mL (≈ 35.2 µM)
MIC [5]: 64 µg/mL (≈ 70.3 µM)
MIC [6]: 64 µg/mL (≈ 70.3 µM)
MIC [7]: >128 µg/mL
Interpretation ([8]; UTBLP + novobiocin): Synergy (FICI ≤ 0.5 is synergistic)
Interpretation ([8]; UTBLP + rifampicin): Synergy (FICI ≤ 0.5 is synergistic)
MICUTBLP ([8]; plate with novobiocin): > 128 µg/mL
MICUTBLP ([8]; plate with rifampicin): > 128 µg/mL
MICUTBLP [MICcombo] [8, 18]: 16 µg/mL
MICUTBLP [MICcombo] [8, 19]: 8 µg/mL
MICantibiotic [MICcombo] [8, 20]: 0.5 µg/mL
MICantibiotic [MICcombo] [8, 21]: 0.5 µg/mL
MIC [9]: > 128 µg/mL
Interpretation ([10]; UTBLP + chloramphenicol): Additive (0.5 < x ≤ 4 is additive)
MICUTBLP [10, 22]: 32 µg/mL
MICUTBLP [MICcombo] [10, 23]: 8 µg/mL
MICchloramphenicol [MICcombo] [10, 24]: 2 µg/mL
Interpretation ([11]; UTBLP + novobiocin): Synergy (FICI ≤ 0.5 is synergistic)
Interpretation ([11]; UTBLP + rifampicin): Synergy (FICI ≤ 0.5 is synergistic)
MICUTBLP ([11]; plate with novobiocin): 128 µg/mL
MICUTBLP ([11]; plate with rifampicin): > 128 µg/mL
MICUTBLP [MICcombo] [11, 18]: 4 µg/mL
MICUTBLP [MICcombo] [11, 19]: 8 µg/mL
MICantibiotic [MICcombo] [11, 20]: 16 µg/mL
MICantibiotic [MICcombo] [11, 21]: 0.5 µg/mL
Interpretation ([12]; UTBLP + novobiocin): Synergy (FICI ≤ 0.5 is synergistic)
Interpretation ([12]; UTBLP + rifampicin): Synergy (FICI ≤ 0.5 is synergistic)
MICUTBLP ([12]; plate with novobiocin): > 128 µg/mL
MICUTBLP ([12]; plate with rifampicin): > 128 µg/mL
MICUTBLP [MICcombo] [12, 18]: 16 µg/mL
MICUTBLP [MICcombo] [12, 19]: 16 µg/mL
MICantibiotic [MICcombo] [12, 20]: 16 µg/mL
MICantibiotic [MICcombo] [12, 21]: 32 µg/mL
Interpretation ([13]; UTBLP + chloramphenicol): Synergy (FICI ≤ 0.5 is synergistic)
Interpretation ([13]; UTBLP + niclosamide): Synergy (FICI ≤ 0.5 is synergistic)
Interpretation ([13]; UTBLP + novobiocin): Synergy (FICI ≤ 0.5 is synergistic)
Interpretation ([13]; UTBLP + rifampicin): Synergy (FICI ≤ 0.5 is synergistic)
MICUTBLP ([13]; plate with chloramphenicol): > 128 µg/mL
MICUTBLP ([13]; plate with niclosamide): > 128 µg/mL
MICUTBLP ([13]; plate with novobiocin): > 128 µg/mL
MICUTBLP ([13]; plate with rifampicin): > 128 µg/mL
MICUTBLP [MICcombo] [13, 23]: 2 µg/mL
MICUTBLP [MICcombo] ([13]; UTBLP in combination with niclosamide): 4 µg/mL
MICUTBLP [MICcombo] [13, 18]: 16 µg/mL
MICUTBLP [MICcombo] [13, 19]: 16 µg/mL
MICantibiotic [MICcombo] [13, 24]: 2 µg/mL
MICantibiotic [MICcombo] ([13]; niclosamide in combination with the UTBLP): 4 µg/mL
MICantibiotic [MICcombo] [13, 20]: 8 µg/mL
MICantibiotic [MICcombo] [13, 21]: 0.5 µg/mL
Interpretation ([14]; UTBLP + chloramphenicol): Additive (0.5 < x ≤ 4 is additive)
MICUTBLP [14, 22]: 32 µg/mL
MICUTBLP [MICcombo] [14, 23]: 4 µg/mL
MICchloramphenicol [MICcombo] [14, 24]: 4 µg/mL
Interpretation ([15]; UTBLP + chloramphenicol): Additive (0.5 < x ≤ 4 is additive)
MICUTBLP [15, 22]: 64 µg/mL
MICUTBLP [MICcombo] [15, 23]: 0.25 µg/mL
MICchloramphenicol [MICcombo] [15, 24]: 64 µg/mL
MICUTBLP [16, 22]: 64 µg/mL
MICUTBLP [MICcombo] [16, 23]: 16 µg/mL
MICchloramphenicol [MICcombo] [16, 24]: 2 µg/mL
MIC [17]: > 128 µg/mL
